One block for each compound: values may come before it.
Experiments:
[1] = tested on: Rattus norvegicus; assay: Reduction in circulating lymphocytes in Lewis rat blood at 2 mg/kg, po measured at 4 hrs by hematology analyzer based analysis; format: functional; set-up: scale not given: the % may be the effect or the level left
[2] = Drug metabolism in Lewis rat blood assessed as concentration of parent compound at 2 mg/kg, po measured at 4 hrs by LC-MS/MS analysis; format: ADME, organism-based; conditions: read-out: Ct
[3] = tested on: Rattus norvegicus; assay: Reduction in circulating lymphocytes in Lewis rat blood at 2 mg/kg, po measured at 24 hrs by hematology analyzer based analysis; format: functional; set-up: scale not given: the % may be the effect or the level left
[4] = Drug metabolism in Lewis rat blood assessed as concentration of parent compound at 2 mg/kg, po measured at 24 hrs by LC-MS/MS analysis; format: ADME, organism-based; conditions: read-out: Ct
[5] = Half-life in Lewis rat at 2 mg/kg, po measured over 72 hrs by LC-MS/MS analysis; format: ADME, organism-based; conditions: in vivo
[6] = Ratio of drug metabolism in Lewis rat blood assessed as phosphate ester metabolite to parent drug at 2 mg/kg, po measured at 24 hrs by LC-MS/MS analysis; format: ADME, organism-based; conditions: in vivo
[7] = Pulmonary toxicity in Lewis rat assessed as elevation of BAL protein level at 10 mg/kg by advia1800 chemistry analyzer; format: organism-based; conditions: in vivo
[8] = Pulmonary toxicity in Lewis rat assessed as elevation of BAL protein level at 2 mg/kg by advia1800 chemistry analyzer; format: organism-based; conditions: in vivo
[9] = tested on: Rattus norvegicus; assay: Reduction in circulating lymphocytes in Lewis rat blood assessed as effective dose after oral dosing measured at 24 hrs by hematology analyzer based analysis; format: functional
[10] = tested on: Rattus norvegicus; assay: Drug metabolism in Lewis rat blood assessed as concentration of phosphate ester metabolite formation at 2 mg/kg, po measured at 4 hrs by LC-MS/MS analysis; conditions: in vivo
[11] = tested on: Mus musculus; assay: Reduction in circulating lymphocytes in Balb/c mouse blood at 1 mg/kg, po measured at 4 hrs by hematology analyzer based analysis; format: functional; set-up: scale not given: the % may be the effect or the level left
[12] = tested on: Mus musculus; assay: Reduction in circulating lymphocytes in Balb/c mouse blood at 50 mg/kg, po measured at 4 hrs by hematology analyzer based analysis; format: functional; set-up: scale not given: the % may be the effect or the level left
[13] = tested on: Mus musculus; assay: Reduction in circulating lymphocytes in Balb/c mouse blood at 1 mg/kg, po measured at 24 hrs by hematology analyzer based analysis; format: functional; set-up: scale not given: the % may be the effect or the level left
[14] = tested on: Mus musculus; assay: Reduction in circulating lymphocytes in Balb/c mouse blood at 50 mg/kg, po measured at 24 hrs by hematology analyzer based analysis; format: functional; set-up: scale not given: the % may be the effect or the level left
[15] = Drug metabolism in Balb/c mouse blood assessed as concentration of parent compound at 1 mg/kg, po measured at 4 hrs by LC-MS/MS analysis; format: ADME, organism-based; conditions: Balb/c, blood, read-out: Ct
[16] = Drug metabolism in Balb/c mouse blood assessed as concentration of parent compound at 50 mg/kg, po measured at 4 hrs by LC-MS/MS analysis; format: ADME, organism-based; conditions: read-out: Ct
[17] = Drug metabolism in Balb/c mouse blood assessed as concentration of phosphate ester metabolite formation at 1 mg/kg, po measured at 4 hrs by LC-MS/MS analysis; format: ADME, organism-based; conditions: in vivo
[18] = Drug metabolism in Balb/c mouse blood assessed as concentration of phosphate ester metabolite formation at 50 mg/kg, po measured at 4 hrs by LC-MS/MS analysis; format: ADME, organism-based; conditions: in vivo
[19] = Drug metabolism in Balb/c mouse blood assessed as concentration of parent compound at 1 mg/kg, po measured at 24 hrs by LC-MS/MS analysis; format: ADME, organism-based; conditions: Balb/c, blood, read-out: Ct
[20] = Drug metabolism in Balb/c mouse blood assessed as concentration of parent compound at 50 mg/kg, po measured at 24 hrs by LC-MS/MS analysis; format: ADME, organism-based; conditions: read-out: Ct
[21] = Drug metabolism in Balb/c mouse blood assessed as concentration of phosphate ester metabolite formation at 1 mg/kg, po measured at 24 hrs by LC-MS/MS analysis; format: ADME, organism-based; conditions: in vivo
[22] = Drug metabolism in Balb/c mouse blood assessed as concentration of phosphate ester metabolite formation at 50 mg/kg, po measured at 24 hrs by LC-MS/MS analysis; format: ADME, organism-based; conditions: in vivo
[23] = Ratio of drug metabolism in Balb/c mouse blood assessed as phosphate ester metabolite to parent drug at 30 mg/kg, po measured at 24 hrs by LC-MS/MS analysis; conditions: in vivo
[24] = Cardiotoxicity in human iPSC derived cardiomyocytes assessed as reduction in beating rate at 1 nM measured over 2 hrs by multi-electrode array relative to control; format: toxicity, cell-based; set-up: scale not given: the % may be the effect or the level left; conditions: stem cell-derived cardiomyocyte, 0.001 µM
[25] = Cardiotoxicity in human iPSC derived cardiomyocytes assessed as reduction in beating rate at 10 nM measured over 2 hrs by multi-electrode array relative to control; format: toxicity, cell-based; set-up: scale not given: the % may be the effect or the level left; conditions: stem cell-derived cardiomyocyte, 0.01 µM
[26] = Ratio of drug metabolism in Balb/c mouse blood assessed as phosphate ester metabolite to parent drug at 1 mg/kg, po measured at 24 hrs by LC-MS/MS analysis; format: ADME, organism-based; conditions: in vivo
[27] = Pulmonary toxicity in Lewis rat assessed as elevation of BAL protein level at 3 mg/kg by advia1800 chemistry analyzer; format: organism-based; conditions: in vivo
[28] = Drug metabolism in pH 7.4 Tris-HCl buffer assessed as amount of phosphate ester metabolite formation at […] in presence of sphingosine kinase 1,2 and Mg-ATP incubated for 30 mins by TLC based analysis relative to fingolimod

Structure (SMILES): COc1cccc(CC[C@H]2CCc3cc([C@H]4CC[C@](N)(COP(=O)(O)O)C4)ccc3C2)c1
Activity [24]: 23% | Activity [25]: 20%

Structure (SMILES): COc1ccccc1CC1CCc2cc([C@H]3CC[C@](N)(CO)C3)ccc2C1 (some centres not stated)
Activity [1]: <10% | Activity [3]: 13%

Structure (SMILES): COc1ccccc1CC[C@H]1CCc2cc([C@H]3CC[C@](N)(COP(=O)(O)O)C3)ccc2C1
Activity [24]: 17% | Activity [25]: 18%

Structure (SMILES): COc1ccc(CC[C@@H]2CCc3cc([C@H]4CC[C@](N)(COP(=O)(O)O)C4)ccc3C2)cc1
Activity [24]: 27% | Activity [25]: 35%

Structure (SMILES): COc1cccc(CC[C@@H]2CCc3cc([C@H]4CC[C@](N)(COP(=O)(O)O)C4)ccc3C2)c1
Activity [24]: 15% | Activity [25]: 31%

Structure (SMILES): COc1ccnc(CC[C@H]2CCc3cc([C@H]4CC[C@](N)(CO)C4)ccc3C2)c1
Drug metabolism [28]: 3%

Structure (SMILES): Cn1cc(CC[C@@H]2CCc3cc([C@H]4CC[C@](N)(CO)C4)ccc3C2)cn1
Drug metabolism [28]: 6%

Structure (SMILES): Cn1ccc(CC[C@@H]2CCc3cc([C@H]4CC[C@](N)(CO)C4)ccc3C2)n1
Drug metabolism [28]: 8%

More lines, main results first:

concentration at 4 h [2]: 90 nM | concentration at 24 h [4]: 50 nM | half-life [5]: 1200 min | Ratio [6]: 1 | Drug metabolism [10]: 40 nM
Structure (SMILES): COc1ccccc1CC[C@H]1CCc2cc([C@H]3CC[C@](N)(CO)C3)ccc2C1
Activity [1]: 46% | Activity [3]: 81% | Activity [7]: 29 mg/dL | Activity [8]: 10.5 mg/dL | ED50 [9]: 0.05 mg/kg

concentration at 4 h [15]: 12 nM | concentration at 4 h [16]: 2400 nM | Drug metabolism [17]: 5.6 nM | Drug metabolism [18]: 1100 nM | concentration at 24 h [19]: 5.6 nM | concentration at 24 h [20]: 530 nM | Drug metabolism ([21]; BLD = below limit of detection): Bld | Drug metabolism [22]: 750 nM | Ratio [23]: 1.4
Structure (SMILES): N[C@]1(CO)CC[C@H](c2ccc3c(c2)CC[C@@H](Cc2ccccc2)C3)C1
Activity [11]: <10% | Activity [12]: 82% | Activity [13]: <10% | Activity [14]: 84%

concentration at 4 h [15]: 28 nM | concentration at 4 h [16]: 1800 nM | Drug metabolism [17]: 12 nM | Drug metabolism [18]: 480 nM | concentration at 24 h [19]: 9 nM | concentration at 24 h [20]: 300 nM | Drug metabolism [21]: 11 nM | Drug metabolism [22]: 310 nM | Ratio [26]: 1.2 | Ratio [23]: 1
Structure (SMILES): N[C@]1(CO)CC[C@H](c2ccc3c(c2)CC[C@H](Cc2ccccc2)C3)C1
Activity [11]: 21% | Activity [12]: 83% | Activity [13]: 15% | Activity [14]: 78%

concentration at 4 h [2]: 90 nM | concentration at 24 h [4]: 80 nM | half-life [5]: 1860 min | Ratio [6]: 6.3 | Drug metabolism [10]: 160 nM
Structure (SMILES): COc1cccc(CC[C@@H]2CCc3cc([C@H]4CC[C@](N)(CO)C4)ccc3C2)c1
Activity [1]: 69% | Activity [3]: 84% | Activity [27]: 10 mg/dL | Activity [7]: 12.7 mg/dL | ED50 [9]: 0.05 mg/kg

concentration at 4 h [2]: 230 nM | concentration at 24 h [4]: 300 nM | half-life [5]: > 4500 min | Ratio [6]: 1.2 | Drug metabolism [10]: 40 nM
Structure (SMILES): N[C@]1(CO)CC[C@H](c2ccc3c(c2)CC[C@H](CCc2ccccc2)C3)C1
Activity [1]: 11% | Activity [3]: 78%

concentration at 4 h [2]: 120 nM | concentration at 24 h [4]: 210 nM | half-life [5]: 2940 min | Ratio [6]: 1.1 | Drug metabolism [10]: 30 nM
Structure (SMILES): COc1cccc(CC[C@H]2CCc3cc([C@H]4CC[C@](N)(CO)C4)ccc3C2)c1
Activity [1]: 44% | Activity [3]: 85% | Activity [7]: 17.5 mg/dL | Activity [8]: 10 mg/dL | ED50 [9]: 0.05 mg/kg

From ChEMBL document CHEMBL4765241, “Identification and Preclinical Pharmacology of ((1 R,3 S)-1-Amino-3-(( S)-6-(2-methoxyphenethyl)-5,6,7,8-tetrahydronaphthalen-2-yl)cyclopentyl)methanol (BMS-986166): A Differentiated Sphingosine-1-phosphate Receptor 1 (S1P) Modulator Advanced into Clinical Trials” (J Med Chem, 2019)
